Data on eleven compounds can be found in ChEMBL document CHEMBL1201862, “PubChem BioAssay data set” (2004).

Among the test systems are SN12C; OVCAR-8; MCF7; 786-0; SW-620; EKVX; UACC-62; SK-OV-3; NCI-H522; SK-MEL-2; MDA-MB-435; PC-3; NCI-H23; NCI/ADR-RES; MDA-N; M14; CAKI-1; SF-268; HT-29; SR.
Common to all, as to experiment: inhibition of tumour cell growth, NCI panel, 48 h

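Five concentrations, 48 hours, 96-well plates. Abbreviation: GI50, concentration required for 50% inhibition of growth.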 Calls of active or inactive are those of the source. Cut-off read from the data, not from the text of the source: active = GI50 up to about 1.1 µM and inactive = higher. Where only a bound is given, the exact number is not on record here.

Regarding `CCCNC(=O)N(C)C(=O)N1N=C(c2ccccc2)C1c1ccccc1` (configuration not stated), the GI50 with SN12C is 37 µM (inactive); in the assay with OVCAR-8, 55.7 µM (inactive); with MCF7, > 100 µM (inactive); in the assay on 786-0, > 100 µM (inactive); in the assay with SW-620 it was > 100 µM (inactive); in the assay on EKVX it was > 100 µM (inactive). The GI50 in the assay with UACC-62 was 59.3 µM (inactive); in the assay on SK-OV-3 it was > 100 µM (inactive); in the assay with NCI-H522, 62.4 µM (inactive); with SK-MEL-2 it was > 100 µM (inactive); in the assay on MDA-MB-435, 95.7 µM (inactive); with PC-3 it was 56.9 µM (inactive). For the same compound, the GI50 with NCI-H23 is > 100 µM (inactive); in the assay on NCI/ADR-RES, > 100 µM (inactive); in the assay with MDA-N, 95.1 µM (inactive); in the assay with M14, > 100 µM (inactive); in the assay on CAKI-1, 75.3 µM (inactive).

As to `Nc1ccc2ccc(-c3ccc[nH]3)nc2n1`, the GI50 with SN12C, in the assay with OVCAR-8, in the assay with MCF7, in the assay on SF-268, in the assay on 786-0 and in the assay on SW-620 was > 100 µM (inactive) throughout. Also, the GI50 in the assay with EKVX, in the assay with SK-OV-3, in the assay with NCI-H522, with SK-MEL-2, in the assay on MDA-MB-435 and with PC-3 was > 100 µM (inactive) each time. The GI50 in the assay on NCI-H23, in the assay on NCI/ADR-RES, in the assay with MDA-N, in the assay with M14 and with CAKI-1 was > 100 µM (inactive) in each case.

As for `COC(=O)c1ccccc1C1=C([N+](=O)[O-])C(c2cccc(Br)c2)C(C#N)=C(N)O1` (configuration not stated), the GI50 with SN12C is 38 µM (inactive); with OVCAR-8 it was 21 µM (inactive); in the assay on HT-29 it was 43.5 µM (inactive); in the assay with SF-268 it was 25.8 µM (inactive); with 786-0, 25.6 µM (inactive); in the assay on SW-620 it was 25.8 µM (inactive). In addition, the GI50 in the assay on EKVX was 36.1 µM (inactive); with UACC-62, 21 µM (inactive); in the assay on SK-OV-3 it was > 100 µM (inactive); in the assay on SR it was 18.2 µM (inactive); in the assay on NCI-H522, 13.6 µM (inactive); in the assay with SK-MEL-2, > 100 µM (inactive). Besides, the GI50 was 22.7 µM (inactive) in the assay with MDA-MB-435; 40.6 µM (inactive) with PC-3; 27.1 µM (inactive) in the assay on NCI-H23; 23.3 µM (inactive) in the assay on NCI/ADR-RES; 44.6 µM (inactive) in the assay with MDA-N; 28 µM (inactive) with M14.

In the case of `CSc1nc(Cl)c2c(n1)Sc1nc3ccccc3n1N=C2`, the GI50 in the assay on SN12C was 37.8 µM (inactive); with OVCAR-8, 19.1 µM (inactive); with HT-29, 23.2 µM (inactive); in the assay with SF-268, 31 µM (inactive); in the assay on 786-0, 28.2 µM (inactive); with SW-620, 13.2 µM (inactive). For the same compound, the GI50 in the assay on UACC-62 is 29.4 µM (inactive); in the assay with SK-OV-3 it was > 100 µM (inactive); with NCI-H522, 19 µM (inactive); in the assay on SK-MEL-2 it was 50.4 µM (inactive); in the assay with MDA-MB-435 it was 29.7 µM (inactive); in the assay with PC-3, 22.3 µM (inactive). The GI50 in the assay on NCI-H23 was 29.6 µM (inactive); with NCI/ADR-RES it was 21.7 µM (inactive); with MDA-N it was 22 µM (inactive); in the assay on M14, 21 µM (inactive); with CAKI-1, 13.4 µM (inactive).

As for `Cc1ccc(S(=O)(=O)Nn2c(S)c(C#N)c(-c3ccc([N+](=O)[O-])cc3)c(C#N)c2=O)cc1`, the GI50 was 19.1 µM (inactive) with SN12C; 36.6 µM (inactive) in the assay with OVCAR-8; 25.6 µM (inactive) in the assay with MCF7; 32.5 µM (inactive) with HT-29; 30.7 µM (inactive) in the assay on SF-268; 20 µM (inactive) with 786-0. The GI50 with SW-620 was 19.2 µM (inactive); in the assay on EKVX, 32 µM (inactive); in the assay with UACC-62 it was 25.8 µM (inactive); with SK-OV-3, 82 µM (inactive); in the assay on NCI-H522, 15.7 µM (inactive); with SK-MEL-2 it was 23 µM (inactive). Also, the GI50 was 23.2 µM (inactive) in the assay with MDA-MB-435; 27.2 µM (inactive) in the assay on PC-3; 33 µM (inactive) in the assay with NCI/ADR-RES; 26.1 µM (inactive) in the assay with MDA-N; 35.1 µM (inactive) in the assay with M14; > 100 µM (inactive) in the assay with CAKI-1.

Turning to `CCOC(=O)C(NC(=O)Nc1ccc(Cl)c(Cl)c1)C(F)(F)F` (configuration not stated), the GI50 in the assay on SN12C, in the assay on OVCAR-8, in the assay with HT-29, with SF-268, in the assay with 786-0 and with SW-620 was > 100 µM (inactive) each time. Also, the GI50 is 77.1 µM (inactive) in the assay with EKVX; > 100 µM (inactive) with SK-OV-3; > 100 µM (inactive) in the assay on SR; 63 µM (inactive) in the assay on SK-MEL-2; 87.1 µM (inactive) with MDA-MB-435; > 100 µM (inactive) in the assay with PC-3. Further, the GI50 in the assay on NCI-H23, in the assay with NCI/ADR-RES, in the assay on MDA-N and in the assay with M14 was > 100 µM (inactive) each time.

Consider `OCCC/N=C1N=C(Cl)/C(=C\c2ccccc2)N\1`, for which the GI50 in the assay on SN12C, in the assay on OVCAR-8, in the assay on MCF7, in the assay on HT-29, in the assay with SF-268 and in the assay on 786-0 was > 100 µM (inactive) throughout. The GI50 in the assay on SW-620, with EKVX, in the assay on SK-OV-3, with SR, with NCI-H522 and in the assay on MDA-MB-435 was > 100 µM (inactive) in each case. For the same compound, the GI50 in the assay with NCI-H23, in the assay with NCI/ADR-RES, in the assay with MDA-N, in the assay on M14 and with CAKI-1 was > 100 µM (inactive) each time.

`N#CC(c1cc(Cl)ncn1)c1nc2cc(C(F)(F)F)ccc2s1` (configuration not stated): the GI50 in the assay on SN12C was 13.7 µM (inactive); in the assay with OVCAR-8 it was 3.83 µM (inactive); with HT-29, 3.39 µM (inactive); with SF-268, 3.66 µM (inactive); in the assay with 786-0 it was 3.3 µM (inactive); in the assay on SW-620 it was 5.37 µM (inactive). In addition, the GI50 with EKVX was 14.5 µM (inactive); in the assay on SK-OV-3, 17.5 µM (inactive); in the assay with NCI-H522, 1.24 µM (inactive); in the assay with MDA-MB-435, 4.31 µM (inactive); with NCI-H23 it was 2.58 µM (inactive); in the assay with NCI/ADR-RES, 3.08 µM (inactive). The GI50 was 3.42 µM (inactive) in the assay with MDA-N, 4.09 µM (inactive) with M14 and 8.95 µM (inactive) in the assay with CAKI-1.

With `Nc1cnc(Nc2cccc3ccccc23)o1`, the GI50 with SN12C, with OVCAR-8, in the assay on MCF7, with HT-29, in the assay with SF-268 and with 786-0 was > 10 µM (inactive) each time. The GI50 with SW-620, in the assay on EKVX, in the assay with UACC-62, with SK-OV-3, in the assay on NCI-H522 and with SK-MEL-2 was > 10 µM (inactive) throughout. Also, the GI50 with MDA-MB-435, in the assay with PC-3, with NCI-H23, in the assay on NCI/ADR-RES, in the assay on MDA-N and in the assay with M14 was > 10 µM (inactive) in each case. For the same compound, the GI50 with CAKI-1 was > 10 µM (inactive).

Consider `COc1ccc(Cl)cc1NC(=O)O/N=C(\Cl)C(C)C`, for which the GI50 is 8.49 µM (inactive) in the assay with SN12C; 15 µM (inactive) in the assay with OVCAR-8; 6.71 µM (inactive) in the assay on MCF7; 16.4 µM (inactive) in the assay on HT-29; 21.5 µM (inactive) in the assay on SF-268; 13 µM (inactive) in the assay on 786-0. Further, the GI50 in the assay on SW-620 is 2.7 µM (inactive); in the assay with EKVX it was 3.74 µM (inactive); in the assay with UACC-62, 12.9 µM (inactive); with SK-OV-3, 18.7 µM (inactive); in the assay with NCI-H522, 0.752 µM (active); in the assay with SK-MEL-2, 18.7 µM (inactive). The GI50 in the assay with MDA-MB-435 was 18.3 µM (inactive); with PC-3, 17.4 µM (inactive); in the assay with NCI-H23 it was 17.6 µM (inactive); in the assay with NCI/ADR-RES, 5.27 µM (inactive); in the assay with MDA-N, 11.4 µM (inactive); in the assay on M14 it was 3.28 µM (inactive). The GI50 in the assay on CAKI-1 was 1.82 µM (inactive).

`CC1=C(CO)C(=O)O[C@@H]([C@@H](C)[C@H]2CC[C@H]3[C@@H]4C[C@@H](O)[C@@]5(O)CC=CC(=O)[C@]5(C)[C@H]4CC[C@]23C)C1` [JABOROSALACTONE D]: the GI50 was 42.4 µM (inactive) with SN12C; 31.3 µM (inactive) in the assay with OVCAR-8; 39.7 µM (inactive) with MCF7; 33.1 µM (inactive) with HT-29; 92.3 µM (inactive) in the assay with SF-268; 20.8 µM (inactive) in the assay on 786-0. In addition, the GI50 with SW-620 was 21.7 µM (inactive); with EKVX, 49.2 µM (inactive); in the assay with UACC-62 it was 29.6 µM (inactive); in the assay with SK-OV-3 it was 63.8 µM (inactive); in the assay with NCI-H522, 14.2 µM (inactive); in the assay with SK-MEL-2 it was 43.7 µM (inactive). The GI50 in the assay with MDA-MB-435 is 44.3 µM (inactive); in the assay with PC-3 it was 47 µM (inactive); in the assay on NCI-H23, 21.2 µM (inactive); in the assay on NCI/ADR-RES it was 21.1 µM (inactive); in the assay on MDA-N it was 45 µM (inactive); in the assay with M14 it was 49.2 µM (inactive). The GI50 in the assay on CAKI-1 is > 100 µM (inactive).
